Measured values as given in article PMC10136135, “Electronic Circular Dichroism Detects Conformational Changes Associated with Proteasome Gating Confirmed Using AFM Imaging” (Biomolecules, 2023).
Where a SMILES comes first, the peptide text is derived from it.

Legend:
[1] = system: T1, yWT20S / y20S WT (wild type yeast 20S proteasome); experiment: ECD spectral change (difference spectrum); assay type: binding, Saccharomyces cerevisiae; conditions: 25 nM 20S, 150 mM Tris, 100 mM NaCl, pH 7.6, 22 °C; H2T4 1 µM in text, 10 µM in figure legend; allosteric, gate opening
T1 construct: gene SCL1; 20S core particle, 28 subunits (alpha-beta-beta-alpha heptameric rings); with Proteasome subunit beta type-1; Proteasome subunit beta type-2; Proteasome subunit beta type-3; Proteasome subunit beta type-4; Proteasome subunit beta type-5; Proteasome subunit beta type-6; Proteasome subunit beta type-7

[2] = system: T2, h20S (human 20S proteasome); experiment: AFM imaging of gate conformers; also ECD shift; assay type: binding; conditions: 5 mM Tris-HCl pH 7; at least 15 min after addition; control 7 ± 1% open; ECD at 1 µM, 25 nM h20S, pH 7.6, 22 °C; allosteric, gate opening
T2 construct: gene PSMA1; 20S core particle, 28 subunits (alpha-beta-beta-alpha heptameric rings); commercial, Enzo Life Sciences (AFM); H2T4 at the alpha ring gate, Suc-LLVY-MCA at the beta5 (ChT-L) site; with Proteasome subunit beta type-6; Proteasome subunit beta type-7; Proteasome subunit beta type-3; Proteasome subunit beta type-2; Proteasome subunit beta type-1; Proteasome subunit beta type-4

[3] = system: T2, h20S (human 20S proteasome); experiment: AFM imaging of gate conformers; assay type: binding; conditions: 5 mM Tris-HCl pH 7, 1% DMSO; beta5 (ChT-L) site

SMILES | ECD spectral change (difference spectrum) [1] | % open conformers at 0.2 μM [2] [%] | % open conformers at 100 μM [3]
C[n+]1ccc(-c2c3nc(c(-c4cc[n+](C)cc4)c4ccc([nH]4)c(-c4cc[n+](C)cc4)c4nc(c(-c5cc[n+](C)cc5)c5ccc2[nH]5)C=C4)C=C3)cc1 [H2T4, 5,10,15,20-tetrakis-4-N-methylpirydyl porphyrin] | the addition of H2T4 induces changes in the ECD spectra of yWT20S | 22 ± 1.3 | –
Cc1cc(=O)oc2cc(NC(=O)[C@H](Cc3ccc(O)cc3)NC(=O)[C@@H](NC(=O)[C@H](CC(C)C)NC(=O)[C@H](CC(C)C)NC(=O)CCC(=O)O)C(C)C)ccc12 [SucLLVY-MCA, succinyl-LeuLeuValTyr-7-amino-4-methylcoumarin] (HELM PEPTIDE1{[O=C(O)CCC(=O)[*:2]].L.L.V.Y.[Cc1cc(=O)oc2cc(N[*:1])ccc12]}$$$$V2.0) | – | – | addition of the model substrate or the porphyrin ligand shifted the conformational equilibrium
